Laboratory results from article PMC5554537 (Frontiers in Pharmacology, 2017).
Like-named read-outs stand apart in the source and are kept apart here.

Legend:
Wistar rats = experiment: Rectal temperature and MTD in rats; format: in vivo; details: single i.v. dose of 90 mg/kg, preliminary
[1] = Rectal temperature and MTD in rats; format: in vivo; details: rat, in vivo, iv; Wistar rats, single i.v. dose
[2] = Redox cycling: non-respiratory O2 consumption and H2O2 generation; format: cell-based; details: Chinese hamster; CHO/POR cells, 600 µM single bolus; read-out: Cell viability by trypan blue at end of exposure
Procedure: The Chinese hamster ovary cell line 51D1.3 (herein called CHO) and a stable transfectant expressing a soluble form of human P450 oxidoreductase (51D1.3/sPOR, herein called CHO/POR) ([Gu et al., 2009]), were grown in spinner flasks in αMEM plus 5% fetal bovine serum. Late log phase cultures were harvested by centrifugation, resuspended at 5 × 10^5 cells/mL in phenol red-free high-glucose DMEM (Invitrogen) supplemented with 4 mM Glutamax-1, 1 mM sodium pyruvate and 5% FBS. Stirred cell suspensions (2 mL) were transferred to an OXYBOROS O2K oxygraph for simultaneous polarographic measurement of non-respiratory O2 consumption and fluorimetric measurement of H2O2 generation as previously ([Hunter et al., 2012]). Bovine liver superoxide dismutase (10 U), horseradish peroxidase (10 U), Amplex UltraRed (50 nmol) and rotenone (1 nmol), all from Molecular Probes Invitrogen (Eugene, OR), were injected and cumulative drug additions (from saline stock solutions) were made every ∼5 min once endogenous rates had stabilized. Signals were recorded every 2 s, and flux derivatives were estimated ∼2 min after each addition using a Savitzky–Golay smoothing filter (40 data point window) in DATLAB version 4.3.
Supplementary Figure 4. Time-dependent changes in oxy gen consu mption and H2O2 formation rates induced by SN30000 in rotenone-inhibited CHO/POR cell suspensions, monitored with an OXYBOROS O2K oxygraph. Conditions of the experiment were identical to Fig. 5 except that SN30000 was added as a single bolus to separate cell suspension, rather than by cu mulative addition. A: Representative traces for oxygen consu mption and H2O2 formation rates for a single culture when SN30000 was added to a final concentration of 600 µM, at 4 min. Peak rates were established within 2 min, followed by a decline to a new steady state at approximately 1/3rd of the maximu m rate. Cell viability was > 97% by try pan […]
killing. […]

NIH-III mice [3] = tested on: NIH-III mice
Excerpt: SUPPLEMTENTAL TABLE 7. Mouse toxicity of SN30000 and M14: Histopathology […]
Male and female NIH-III mice aged 6-10 weeks were given a single i.p. dose of SN30000 (186, 248 […]
untreated control for each sex, fixed in 10% neutral buffered formalin at room temperature for 24-48 hr, transferred to 70% ethanol and subsequently paraffin embedded, sectioned and H&E stained for light microscopy . The following tissues/organs were examined: skin, testes, eyeball, brain, liver, lung, stomach, duodenum, heart, spleen, pancreas, colon, femur and joint (incl marrow), skeletal muscle (psoas) and kidney. Results are reported only for positive findings.

HT29 tumor cells = tested on: HT29 tumor cells; set-up: method as in Hicks et al., 2010; details: stirred suspensions of HT29 tumor cells; ref Hicks et al., 2010; cited from earlier work
NIH-III mice [4] = tested on: NIH-III mice; set-up: method as in Gu et al., 2014; details: ref Gu et al., 2014, cited from earlier work; for Survival: 14 days
Urinary excretion = format: in vivo, NIH-III mice; details: for Urinary excretion, % of administered dose: 24 h
Procedure: Mice (20–25 g body weight) were dosed i.p. or by slow bolus (10–20 s) i.v. injection via a lateral tail vein, with co-administration of ^3H-mannitol (0.025 μmol/kg; 67 MBq/g) in some studies as a marker of renal function. For evaluation of acute toxicity, mice were observed continuously for 3 h after dosing, and their activity rated on a lethargy score from 0 representing no change in activity to 5 representing animals that were moribund and required culling. For MTD studies, the animals were checked daily for clinical signs of toxicity and body weight change for 2 weeks. In some studies rectal temperature changes after dosing were measured using a BAT-12 digital microprobe thermometer (Physitemp Instruments, Clifton, NJ, United States) at the times specified in the figures. Blood samples were collected from mice at various times by cardiac puncture, seconds after cervical dislocation, into ice-cold tubes containing K2EDTA. These were placed on ice immediately after collection and centrifuged (3,000 g, 3 min) within 10 min to harvest plasma. Plasma and tissues were rapidly frozen in liquid nitrogen before storage at -80°C for subsequent bioanalysis. Urine samples were collected from mice housed individually in metabolic cages (Minor Metabowl, Jencons, United Kingdom; one animal per cage) with continuous access to food and water.

[5] = set-up: method as in Anderson et al., 2014; details: ref Anderson et al., 2014; cited from earlier work

What does the source list for `[O-][n+]1nc(CCCN2CCOCC2)[n+]([O-])c2cc3c(cc21)CCC3` [SN30000, 3-(3-Morpholinopropyl)-7,8-dihydro-6H-indeno[5,6-e][1,2,4]triazine 1,4-dioxide]?
Decrease in rectal temperature (Wistar rats): ~2.5 °C; MTD [1]: 90 mg/kg; viability at 600 µM [2]: > 97%; Histopathology findings, Kidney (NIH-III mice [3]; 186 mg/kg i.p., female, 3 examined): Basophilic cortical tubules (2); karyomegaly in tubular epithelium (3); tubular epithelial necrosis (3); Histopathology findings, Kidney (NIH-III mice [3]; 248 mg/kg i.p., female, 2 examined): Basophilic cortical tubules (2); karyomegaly in tubular epithelium (2); tubular epithelial necrosis (2); Histopathology findings, Testes (NIH-III mice [3]; 248 mg/kg i.p., male, 1 examined): Degeneration of germinal epithelium (1); Histopathology findings, Kidney (NIH-III mice [3]; 248 mg/kg i.p., male, 2 examined): Basophilic cortical tubules (1); karyomegaly in tubular epithelium (1); tubular epithelial necrosis (1); Histopathology findings, Kidney (NIH-III mice [3]; 331 mg/kg i.p., male, 1 examined): Basophilic cortical tubules (1); karyomegaly in tubular epithelium (1); tubular epithelial necrosis (1); O2 in solution for 50% inhibition of cytotoxicity (HT29 tumor cells): 1.14 ± 0.24 µM; Survival (NIH-III mice [4]; female, 562 µmol/kg i.p.): 6/6; Body weight nadir, Day (NIH-III mice [4]; female, 562 µmol/kg i.p.): 1; Body weight nadir, Weight loss (NIH-III mice [4]; female, 562 µmol/kg i.p.): 8.4 ± 1.7%; Survival (NIH-III mice [4]; female, 750 µmol/kg i.p.): 1/2; Body weight nadir, Day (NIH-III mice [4]; female, 750 µmol/kg i.p.): 2; Body weight nadir, Weight loss (NIH-III mice [4]; female, 750 µmol/kg i.p.): 14.4%; Survival (NIH-III mice [4]; female, 1000 µmol/kg i.p.): 0/1; Survival (NIH-III mice [4]; male, 562 µmol/kg i.p.): 7/7; Body weight nadir, Day (NIH-III mice [4]; male, 562 µmol/kg i.p.): 1; Body weight nadir, Weight loss (NIH-III mice [4]; male, 562 µmol/kg i.p.): 4.2 ± 1.2%; Survival (NIH-III mice [4]; male, 750 µmol/kg i.p.): 2/3; Body weight nadir, Day (NIH-III mice [4]; male, 750 µmol/kg i.p.): 1; Body weight nadir, Weight loss (NIH-III mice [4]; male, 750 µmol/kg i.p.): 12.1 ± 3.8%; Survival (NIH-III mice [4]; male, 1000 µmol/kg i.p.): 1/2; Body weight nadir, Day (NIH-III mice [4]; male, 1000 µmol/kg i.p.): 1; Body weight nadir, Weight loss (NIH-III mice [4]; male, 1000 µmol/kg i.p.): 13.3%; Survival (NIH-III mice [4]; male, 1333 µmol/kg i.p.): 1/2; Body weight nadir, Day (NIH-III mice [4]; male, 1333 µmol/kg i.p.): 1; Body weight nadir, Weight loss (NIH-III mice [4]; male, 1333 µmol/kg i.p.): 11.6%; Urinary excretion, % of administered dose (Urinary excretion; 18.6 mg/kg i.p.): 3.38 ± 0.03%; Urinary excretion, % of administered dose (Urinary excretion; 186 mg/kg i.p.): 5.64 ± 0.02%; Urinary excretion, % of injected dose (Urinary excretion; by 24 h, dose not stated): ~5%

Which “One-electron reduction potential, lower than SN30000 by” value [5] does the source give for `[O-][n+]1nc(CCCN2CCOCC2)nc2cc3c(cc21)CCC3` [M14] here?
The value was 70 mV.
